{
  "source": "ChEMBL document CHEMBL1153717",
  "data": [
    {"target": "T1, Low molecular weight protein-tyrosine phosphatase A (Mycobacterium tuberculosis, UniProt P9WIA1)", "T1 sequence (P9WIA1 whole entry)": "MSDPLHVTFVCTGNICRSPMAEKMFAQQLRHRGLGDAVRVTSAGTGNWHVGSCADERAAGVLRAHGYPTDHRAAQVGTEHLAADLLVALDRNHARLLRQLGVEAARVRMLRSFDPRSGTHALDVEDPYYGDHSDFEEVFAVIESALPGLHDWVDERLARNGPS", "assay": "(§1) Inhibition of Mycobacterium tuberculosis PtpA", "settings": "not given", "values": [
      {"smiles": "O=C(Nc1nc2ccccc2[nH]1)c1ccc(C(F)(F)P(=O)(O)O)cc1", "Ki": "ND(Insoluble)"}
    ]},
    {"target": "T1, Low molecular weight protein-tyrosine phosphatase A", "assay": "as §1", "settings": "read-out: Ki", "units": {"Ki": "µM"}, "values": [
      {"smiles": "O=C(Nc1ccc(F)cc1)c1ccc(C(F)(F)P(=O)(O)O)cc1", "Ki": 22.7},
      {"smiles": "O=C(Nc1cc(C(F)(F)F)cc(C(F)(F)F)c1)c1ccc(C(F)(F)P(=O)(O)O)cc1", "Ki": 3.3},
      {"smiles": "O=C(Nc1ccccc1Cl)c1ccc(C(F)(F)P(=O)(O)O)cc1", "Ki": 68},
      {"smiles": "O=P(O)(O)C(F)(F)c1ccc(COc2ccccc2)cc1", "Ki": "> 100"},
      {"smiles": "O=[N+]([O-])c1ccc(C(F)(F)P(=O)(O)O)cc1", "Ki": 75.4},
      {"smiles": "O=P(O)(O)C(F)(F)c1ccc(-c2ccccc2)cc1", "Ki": "> 100"},
      {"smiles": "O=C(Nc1ccc(C(F)(F)P(=O)(O)O)cc1)Nc1cc(C(F)(F)F)cc(C(F)(F)F)c1", "Ki": 3.1},
      {"smiles": "O=P(O)(O)C(F)(F)c1ccc(CNc2ccccc2)cc1", "Ki": "> 100"},
      {"smiles": "O=C(Nc1ccccc1C(F)(F)F)c1ccc(C(F)(F)P(=O)(O)O)cc1", "Ki": 54.8},
      {"smiles": "O=C(Nc1cc(C(F)(F)F)c(Br)c(C(F)(F)F)c1)c1ccc(C(F)(F)P(=O)(O)O)cc1", "Ki": 1.4},
      {"smiles": "O=P(O)(O)C(F)(F)c1ccc2c(cnn2Cc2ccccc2)c1", "Ki": "> 100"},
      {"smiles": "CCN1CCC(NC(=O)c2ccc(C(F)(F)P(=O)(O)O)cc2)CC1", "Ki": "> 100"},
      {"smiles": "O=C(Nc1ccc(F)c(C(F)(F)F)c1)c1ccc(C(F)(F)P(=O)(O)O)cc1", "Ki": 11.4},
      {"smiles": "O=C(Nc1cccc(Br)c1)c1ccc(C(F)(F)P(=O)(O)O)cc1", "Ki": 18.2},
      {"smiles": "O=C(Nc1ccccc1)c1cccc(C(F)(F)P(=O)(O)O)c1", "Ki": "> 100"},
      {"smiles": "O=C(Nc1ccccc1F)c1ccc(C(F)(F)P(=O)(O)O)cc1", "Ki": "> 100"},
      {"smiles": "O=C(Nc1ccccc1Br)c1ccc(C(F)(F)P(=O)(O)O)cc1", "Ki": 44.6},
      {"smiles": "O=C(Nc1ccc(Cl)c(C(F)(F)F)c1)c1ccc(C(F)(F)P(=O)(O)O)cc1", "Ki": 6},
      {"smiles": "CN(C(=O)c1ccc(C(F)(F)P(=O)(O)O)cc1)c1ccccc1", "Ki": "> 100"},
      {"smiles": "O=C(Nc1ccc(Br)c(C(F)(F)F)c1)c1ccc(C(F)(F)P(=O)(O)O)cc1", "Ki": 4.9},
      {"smiles": "O=C(NCC1CCCC1)c1ccc(C(F)(F)P(=O)(O)O)cc1", "Ki": "> 100"},
      {"smiles": "O=C(Nc1ccc(Br)cc1)c1ccc(C(F)(F)P(=O)(O)O)cc1", "Ki": 10.3},
      {"smiles": "O=C(Nc1ccccc1)c1ccc(C(F)(F)P(=O)(O)O)cc1", "Ki": 24},
      {"smiles": "O=P(O)(O)C(F)(F)c1ccc2nn(Cc3ccccc3)cc2c1", "Ki": 84.4},
      {"smiles": "O=C(Cc1ccc(C(F)(F)P(=O)(O)O)cc1)Nc1ccccc1", "Ki": "> 100"},
      {"smiles": "O=P(O)(O)C(F)(F)c1ccc(S(=O)(=O)Nc2ccccc2)cc1", "Ki": "> 100"},
      {"smiles": "O=C(Nc1ccc(C(F)(F)F)cc1)c1ccc(C(F)(F)P(=O)(O)O)cc1", "Ki": 18.5},
      {"smiles": "O=C(NCC(F)(F)F)c1ccc(C(F)(F)P(=O)(O)O)cc1", "Ki": 49.7},
      {"smiles": "O=C(Nc1ccc(Cl)cc1)c1ccc(C(F)(F)P(=O)(O)O)cc1", "Ki": 16.8},
      {"smiles": "O=C(NCCc1ccccc1)c1ccc(C(F)(F)P(=O)(O)O)cc1", "Ki": 61.6},
      {"smiles": "CC(C)NC(=O)c1ccc(C(F)(F)P(=O)(O)O)cc1", "Ki": "> 100"},
      {"smiles": "O=C(NC1CCCC1)c1ccc(C(F)(F)P(=O)(O)O)cc1", "Ki": 72.4},
      {"smiles": "O=C(Nc1nccs1)c1ccc(C(F)(F)P(=O)(O)O)cc1", "Ki": 33},
      {"smiles": "O=P(O)(O)C(F)(F)c1ccc(Br)cc1", "Ki": 92.3},
      {"smiles": "O=C(O)c1ccc(C(F)(F)P(=O)(O)O)cc1", "Ki": "> 100"},
      {"smiles": "CNC(=O)c1ccc(C(F)(F)P(=O)(O)O)cc1", "Ki": "> 100"},
      {"smiles": "O=C(Nc1ccc(C(F)(F)P(=O)(O)O)cc1)c1ccccc1", "Ki": 65.5},
      {"smiles": "Cn1cc(-c2ccc(C(F)(F)P(=O)(O)O)cc2)cn1", "Ki": "> 100"},
      {"smiles": "O=C(NCc1ccccc1)c1ccc(C(F)(F)P(=O)(O)O)cc1", "Ki": 43.1},
      {"smiles": "O=C(Nc1cccc(Cl)c1)c1ccc(C(F)(F)P(=O)(O)O)cc1", "Ki": 34.9},
      {"smiles": "O=C(Nc1cccc(F)c1)c1ccc(C(F)(F)P(=O)(O)O)cc1", "Ki": 41.8},
      {"smiles": "O=C(Nc1cccc(C(F)(F)F)c1)c1ccc(C(F)(F)P(=O)(O)O)cc1", "Ki": 10.7}
    ]},
    {"target": "T2, Tyrosine-protein phosphatase non-receptor type 1 (Homo sapiens, UniProt P18031)", "T2 sequence (P18031 whole entry)": "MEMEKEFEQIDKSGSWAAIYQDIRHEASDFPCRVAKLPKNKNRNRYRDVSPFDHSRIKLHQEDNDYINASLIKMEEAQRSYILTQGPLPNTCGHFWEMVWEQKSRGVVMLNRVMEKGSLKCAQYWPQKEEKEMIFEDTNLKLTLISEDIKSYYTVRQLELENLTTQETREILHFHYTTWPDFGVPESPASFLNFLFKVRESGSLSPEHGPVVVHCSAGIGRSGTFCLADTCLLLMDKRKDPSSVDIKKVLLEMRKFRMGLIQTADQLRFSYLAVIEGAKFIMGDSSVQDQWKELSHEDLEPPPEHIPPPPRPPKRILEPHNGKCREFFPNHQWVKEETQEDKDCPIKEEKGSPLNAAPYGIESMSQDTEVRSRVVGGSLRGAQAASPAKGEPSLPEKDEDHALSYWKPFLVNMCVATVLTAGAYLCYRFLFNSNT", "assay": "Inhibition of human PTP1B", "settings": "not given", "units": {"Ki": "µM"}, "values": [
      {"smiles": "O=C(Nc1cc(C(F)(F)F)c(Br)c(C(F)(F)F)c1)c1ccc(C(F)(F)P(=O)(O)O)cc1", "Ki": "> 100"}
    ]},
    {"target": "T3, Tyrosine-protein phosphatase non-receptor type 2 (Homo sapiens, UniProt P17706)", "T3 sequence (P17706 whole entry)": "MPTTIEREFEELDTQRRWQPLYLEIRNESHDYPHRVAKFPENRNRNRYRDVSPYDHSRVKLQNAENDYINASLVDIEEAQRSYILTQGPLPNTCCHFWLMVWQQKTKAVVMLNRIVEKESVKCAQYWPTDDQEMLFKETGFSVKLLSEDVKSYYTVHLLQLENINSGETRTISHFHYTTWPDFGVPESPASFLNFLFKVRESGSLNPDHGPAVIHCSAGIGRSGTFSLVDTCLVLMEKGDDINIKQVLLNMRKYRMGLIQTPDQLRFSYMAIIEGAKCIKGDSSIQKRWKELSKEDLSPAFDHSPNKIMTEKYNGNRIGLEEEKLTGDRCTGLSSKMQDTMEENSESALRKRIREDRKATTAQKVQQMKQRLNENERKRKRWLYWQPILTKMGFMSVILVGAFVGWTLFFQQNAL", "assay": "Inhibition of human TCPTP", "settings": "not given", "units": {"Ki": "µM"}, "values": [
      {"smiles": "O=C(Nc1cc(C(F)(F)F)c(Br)c(C(F)(F)F)c1)c1ccc(C(F)(F)P(=O)(O)O)cc1", "Ki": "> 100"}
    ]},
    {"target": "Dual specificity protein phosphatase 3 (Homo sapiens, UniProt P51452)", "sequence (P51452 whole entry)": "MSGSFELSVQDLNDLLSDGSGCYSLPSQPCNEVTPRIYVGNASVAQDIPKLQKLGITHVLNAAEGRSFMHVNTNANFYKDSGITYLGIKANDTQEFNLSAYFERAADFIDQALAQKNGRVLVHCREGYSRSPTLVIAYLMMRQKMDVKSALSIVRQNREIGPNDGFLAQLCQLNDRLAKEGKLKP", "assay": "Inhibition of human VHR", "settings": "not given", "units": {"Ki": "µM"}, "values": [
      {"smiles": "O=C(Nc1cc(C(F)(F)F)c(Br)c(C(F)(F)F)c1)c1ccc(C(F)(F)P(=O)(O)O)cc1", "Ki": "> 100"}
    ]},
    {"target": "T4, Receptor-type tyrosine-protein phosphatase C (Homo sapiens, UniProt P08575)", "T4 sequence (P08575 whole entry)": "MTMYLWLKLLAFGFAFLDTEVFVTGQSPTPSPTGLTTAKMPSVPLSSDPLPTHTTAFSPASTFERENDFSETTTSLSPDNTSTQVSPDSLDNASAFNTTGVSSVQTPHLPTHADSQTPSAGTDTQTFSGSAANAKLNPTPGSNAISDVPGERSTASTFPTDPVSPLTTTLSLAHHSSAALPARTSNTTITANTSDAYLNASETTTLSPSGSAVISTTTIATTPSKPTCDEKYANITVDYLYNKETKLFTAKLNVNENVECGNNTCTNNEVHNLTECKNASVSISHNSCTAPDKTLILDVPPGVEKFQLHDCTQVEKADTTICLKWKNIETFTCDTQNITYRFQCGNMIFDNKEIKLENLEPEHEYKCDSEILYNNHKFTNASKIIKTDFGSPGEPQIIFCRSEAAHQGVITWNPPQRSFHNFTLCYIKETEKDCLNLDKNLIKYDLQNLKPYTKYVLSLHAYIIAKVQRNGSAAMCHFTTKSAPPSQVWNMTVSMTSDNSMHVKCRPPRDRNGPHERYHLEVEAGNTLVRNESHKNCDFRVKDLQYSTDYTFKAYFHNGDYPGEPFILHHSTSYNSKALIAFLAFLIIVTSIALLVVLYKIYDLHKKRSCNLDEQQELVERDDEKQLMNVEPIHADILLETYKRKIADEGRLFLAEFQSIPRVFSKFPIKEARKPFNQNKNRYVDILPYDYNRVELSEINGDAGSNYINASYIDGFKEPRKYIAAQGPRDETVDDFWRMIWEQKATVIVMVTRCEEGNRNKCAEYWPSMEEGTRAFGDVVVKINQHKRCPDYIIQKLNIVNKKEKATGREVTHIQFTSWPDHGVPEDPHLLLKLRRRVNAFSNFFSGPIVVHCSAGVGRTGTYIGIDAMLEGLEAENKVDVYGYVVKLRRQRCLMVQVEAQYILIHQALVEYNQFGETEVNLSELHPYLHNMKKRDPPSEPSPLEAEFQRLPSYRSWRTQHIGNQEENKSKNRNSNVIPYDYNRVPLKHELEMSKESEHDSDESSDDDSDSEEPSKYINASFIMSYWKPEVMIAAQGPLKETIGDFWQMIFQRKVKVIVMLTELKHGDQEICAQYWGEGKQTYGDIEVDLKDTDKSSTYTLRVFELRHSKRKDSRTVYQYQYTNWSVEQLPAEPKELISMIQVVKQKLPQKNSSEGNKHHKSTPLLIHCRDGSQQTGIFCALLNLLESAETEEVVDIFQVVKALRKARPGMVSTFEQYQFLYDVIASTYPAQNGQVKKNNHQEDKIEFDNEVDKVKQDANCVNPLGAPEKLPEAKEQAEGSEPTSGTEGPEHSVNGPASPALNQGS", "assay": "Inhibition of human CD45", "settings": "not given", "units": {"Ki": "µM"}, "values": [
      {"smiles": "O=C(Nc1cc(C(F)(F)F)c(Br)c(C(F)(F)F)c1)c1ccc(C(F)(F)P(=O)(O)O)cc1", "Ki": "> 100"}
    ]},
    {"target": "Receptor-type tyrosine-protein phosphatase F (Homo sapiens, UniProt P10586)", "sequence (P10586 whole entry)": "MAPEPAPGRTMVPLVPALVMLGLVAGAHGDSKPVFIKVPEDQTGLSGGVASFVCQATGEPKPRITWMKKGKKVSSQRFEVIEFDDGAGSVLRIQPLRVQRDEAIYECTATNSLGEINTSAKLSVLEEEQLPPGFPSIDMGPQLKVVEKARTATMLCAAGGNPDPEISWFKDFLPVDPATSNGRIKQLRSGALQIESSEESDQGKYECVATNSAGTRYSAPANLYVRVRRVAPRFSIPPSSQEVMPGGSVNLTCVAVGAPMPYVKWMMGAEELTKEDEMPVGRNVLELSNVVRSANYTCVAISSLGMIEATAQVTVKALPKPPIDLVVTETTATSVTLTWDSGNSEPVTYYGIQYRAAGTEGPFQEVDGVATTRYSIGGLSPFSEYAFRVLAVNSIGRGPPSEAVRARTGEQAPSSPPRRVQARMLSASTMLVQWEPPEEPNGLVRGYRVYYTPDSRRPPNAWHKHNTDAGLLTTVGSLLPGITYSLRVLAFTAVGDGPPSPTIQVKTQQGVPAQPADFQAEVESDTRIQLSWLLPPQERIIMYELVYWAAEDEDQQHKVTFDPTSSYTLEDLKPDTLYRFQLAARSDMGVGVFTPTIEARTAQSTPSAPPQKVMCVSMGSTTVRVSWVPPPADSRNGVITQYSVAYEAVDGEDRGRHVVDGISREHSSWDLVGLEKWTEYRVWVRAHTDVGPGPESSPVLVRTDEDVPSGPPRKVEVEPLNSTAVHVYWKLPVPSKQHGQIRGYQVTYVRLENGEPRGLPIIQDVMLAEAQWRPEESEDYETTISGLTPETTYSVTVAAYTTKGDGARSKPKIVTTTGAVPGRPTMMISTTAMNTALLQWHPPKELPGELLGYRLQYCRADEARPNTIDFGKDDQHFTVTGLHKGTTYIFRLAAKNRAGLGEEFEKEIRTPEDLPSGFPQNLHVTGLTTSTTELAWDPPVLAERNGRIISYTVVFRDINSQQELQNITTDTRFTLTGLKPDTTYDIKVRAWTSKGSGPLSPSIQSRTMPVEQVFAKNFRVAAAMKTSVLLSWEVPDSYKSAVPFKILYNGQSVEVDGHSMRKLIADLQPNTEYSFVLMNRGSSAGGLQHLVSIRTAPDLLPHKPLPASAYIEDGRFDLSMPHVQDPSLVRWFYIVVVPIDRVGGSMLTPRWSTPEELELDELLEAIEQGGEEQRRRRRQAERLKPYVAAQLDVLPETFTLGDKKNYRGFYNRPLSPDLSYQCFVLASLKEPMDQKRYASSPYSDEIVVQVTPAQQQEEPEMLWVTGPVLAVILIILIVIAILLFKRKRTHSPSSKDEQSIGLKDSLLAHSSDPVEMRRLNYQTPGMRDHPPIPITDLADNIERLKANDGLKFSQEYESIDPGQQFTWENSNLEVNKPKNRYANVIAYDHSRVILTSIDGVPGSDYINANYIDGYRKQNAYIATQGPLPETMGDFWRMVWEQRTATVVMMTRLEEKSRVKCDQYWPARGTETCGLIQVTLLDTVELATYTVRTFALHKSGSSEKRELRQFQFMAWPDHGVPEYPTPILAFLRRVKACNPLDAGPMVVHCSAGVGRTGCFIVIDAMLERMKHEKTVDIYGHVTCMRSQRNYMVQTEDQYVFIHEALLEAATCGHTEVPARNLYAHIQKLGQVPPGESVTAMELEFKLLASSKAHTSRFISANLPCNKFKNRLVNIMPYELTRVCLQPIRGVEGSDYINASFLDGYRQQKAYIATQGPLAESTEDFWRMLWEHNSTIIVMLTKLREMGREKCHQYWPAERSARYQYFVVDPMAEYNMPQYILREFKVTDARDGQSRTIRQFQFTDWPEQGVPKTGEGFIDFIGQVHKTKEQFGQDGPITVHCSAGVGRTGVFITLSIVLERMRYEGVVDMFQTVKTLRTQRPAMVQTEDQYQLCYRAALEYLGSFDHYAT", "assay": "Inhibition of human LAR", "settings": "not given", "units": {"Ki": "µM"}, "values": [
      {"smiles": "O=C(Nc1cc(C(F)(F)F)c(Br)c(C(F)(F)F)c1)c1ccc(C(F)(F)P(=O)(O)O)cc1", "Ki": "> 100"}
    ]},
    {"target": "T5, Low molecular weight phosphotyrosine protein phosphatase (Homo sapiens, UniProt P24666)", "T5 sequence (P24666 whole entry)": "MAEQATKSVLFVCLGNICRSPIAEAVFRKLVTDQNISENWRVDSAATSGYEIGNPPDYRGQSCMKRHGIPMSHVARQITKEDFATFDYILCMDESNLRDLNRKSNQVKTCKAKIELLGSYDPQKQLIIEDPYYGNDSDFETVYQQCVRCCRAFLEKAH", "assay": "Inhibition of human HCPTPA", "settings": "not given", "units": {"Ki": "µM"}, "values": [
      {"smiles": "O=C(Nc1cc(C(F)(F)F)c(Br)c(C(F)(F)F)c1)c1ccc(C(F)(F)P(=O)(O)O)cc1", "Ki": 14.8}
    ]}
  ]
}
